Publication PMC10688023 (Journal of chemical information and modeling, 2023)
Where a name gives a salt, the structure may show the parent alone. Read-outs that look alike come from different tables or passages of the source.

Columns and labels:
[1] = system: BChE; settings: cited from earlier work
[2] = molecular target: T1, recombinant human BChE (Homo sapiens, UniProt P06276); format: biochemical; settings: for BChE inhibitory effect (activity call): active in colorimetric assay and in fluorescence assay
T1 sequence (P06276 29-602): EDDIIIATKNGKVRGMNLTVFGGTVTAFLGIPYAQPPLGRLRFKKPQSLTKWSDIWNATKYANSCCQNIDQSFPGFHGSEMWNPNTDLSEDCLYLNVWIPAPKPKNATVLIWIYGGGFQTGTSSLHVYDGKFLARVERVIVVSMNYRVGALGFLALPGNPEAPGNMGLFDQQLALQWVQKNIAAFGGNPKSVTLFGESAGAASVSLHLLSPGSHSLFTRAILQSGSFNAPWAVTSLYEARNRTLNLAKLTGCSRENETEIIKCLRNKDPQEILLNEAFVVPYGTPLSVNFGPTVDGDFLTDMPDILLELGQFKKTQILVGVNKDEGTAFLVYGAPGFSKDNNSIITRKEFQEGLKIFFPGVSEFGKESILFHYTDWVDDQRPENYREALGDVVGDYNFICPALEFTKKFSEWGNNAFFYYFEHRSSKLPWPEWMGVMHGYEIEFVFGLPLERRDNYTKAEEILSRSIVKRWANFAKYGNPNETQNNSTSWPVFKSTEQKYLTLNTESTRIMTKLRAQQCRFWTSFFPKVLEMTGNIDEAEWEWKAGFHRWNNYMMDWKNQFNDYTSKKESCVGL

[3] = system: AChE; settings: ref [8], cited from earlier work
[4] = molecular target: T1, recombinant human BChE
[5] = molecular target: T2, recombinant human AChE (Homo sapiens, UniProt P22303); settings: fluorescence-based assay
T2 sequence (P22303 32-614): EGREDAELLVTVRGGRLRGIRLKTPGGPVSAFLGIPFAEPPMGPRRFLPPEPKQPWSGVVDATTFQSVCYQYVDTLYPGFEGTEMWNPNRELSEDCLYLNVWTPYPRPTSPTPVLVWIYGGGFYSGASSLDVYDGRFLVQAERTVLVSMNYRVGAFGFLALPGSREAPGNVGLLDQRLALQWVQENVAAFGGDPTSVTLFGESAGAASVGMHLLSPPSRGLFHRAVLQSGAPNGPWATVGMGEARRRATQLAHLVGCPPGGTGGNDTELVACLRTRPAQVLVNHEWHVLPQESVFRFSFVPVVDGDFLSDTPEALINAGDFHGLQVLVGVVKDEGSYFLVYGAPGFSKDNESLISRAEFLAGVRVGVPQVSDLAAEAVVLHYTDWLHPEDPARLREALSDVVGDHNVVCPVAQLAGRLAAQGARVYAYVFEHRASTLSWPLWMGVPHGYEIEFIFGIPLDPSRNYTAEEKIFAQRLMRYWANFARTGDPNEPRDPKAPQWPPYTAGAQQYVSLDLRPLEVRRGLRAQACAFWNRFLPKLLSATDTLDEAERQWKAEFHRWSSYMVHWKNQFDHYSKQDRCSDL

[6] = molecular target: T2, recombinant human AChE

CCN(CC)C(C)CN1c2ccccc2Sc2ccccc21 (stereo not drawn) [ethopropazine]
IC50 ([1]; read-out: IC50, BChE inhibition, ref [41], [42]): 210 to 300 nM | selectivity for BChE over AChE ([1]; ref [39]): ~ 1000 fold

CCN(CC)CCOC(=O)C(Cc1cccc2ccccc12)CC1CCCO1 (stereo not drawn) [nafronyl oxalate]
BChE inhibitory effect (activity call) [2]: confirmed by both assays

COc1ccc2c3c1O[C@H]1C[C@@H](O)C=C[C@@]31CCN(C)C2 [galantamine]
IC50 ([3]; read-out: IC50, AChE inhibition, [40]): 790 nM | selective inhibition of AChE activity versus BChE [3]: 50 fold

CN(C)[C@@H](CCOc1cccc2ccccc12)c1ccccc1 [dapoxetine HCl]
BChE inhibitory effect (activity call) [2]: confirmed by both assays

Cc1ccc(C)c(-n2cc(CN(C)CCO)c(-c3ccccc3)n2)c1 [NCGC00425816]
selectivity index (SI) ([4]; BChE over AChE): 1250-2351 | efficacy, BChE inhibition ([4]; colorimetric assay): 98.9%±3.21 | IC50 ([4]; read-out: IC50, BChE inhibition, colorimetric assay): 40 ± 10 nM | efficacy, BChE inhibition ([2]; fluorescence-based assay): 109%±6.76 | IC50 ([2]; read-out: IC50, BChE inhibition, fluorescence-based assay): 80 ± 10 nM

O=C(NCc1ccnc(N2CCCC2)c1)C1CCCN(c2cc(-n3cncn3)ncn2)C1 (stereo not drawn) [NCGC00526830]
efficacy, AChE inhibition [5]: 116%±3.24 | IC50 ([5]; read-out: IC50, AChE inhibition): 130 ± 20 nM | selectivity index (SI) ([6]; AChE over BChE): 79-164 | efficacy, AChE inhibition ([6]; colorimetric assay): 78%±4.18 | IC50 ([6]; read-out: IC50, AChE inhibition, colorimetric assay): 270 nM

CC(CCc1ccccc1)NC(C)C(O)c1ccc(O)cc1 (stereo not drawn) [nylidrin hydrochloride]
BChE inhibitory effect (activity call) [2]: confirmed by both assays

CCN(CCCc1ccccc1)CCCc1ccccc1 [alverine citrate]
BChE inhibitory effect (activity call) [2]: confirmed by both assays
